From patent US20120213789A1, “New Molecular Target for Treatment of Cancer” (priority 2001, published 2012) come the findings set out here.

Each structure is given as a SMILES string.

For assay [1], the system named is MLC-SV40 immortalized normal cells. Description: Dose-response kinetics of UC28 protein expression by flow cytometry. Particulars: 0.5 to 25 mM SPB. The class given is cell-based. As to the method:
Cells were grown to 70-80% confluence at 37° C. and 5% CO2 in T-75 tissue culture plastic flasks. SPB stock solution was added to final concentrations of 0.5, 5.0, 10.0, and 25.0 mM in appropriate fresh media to the cell cultures. Cells were incubated at 37° C. and 5% CO2 for 72 hours. Attached cells were then harvested using a solution of 0.05% trypsin and 0.53 mM EDTA (Invitrogen Corp.). Attached cells were then pooled with any the detached cells and washed with PBS pH 7.2. Cell numbers and percent viability were determined using Trypan blue dye exclusion and a hemacytometer. At the time of their use in an experiment the viability was usually about 85% for untreated cells and a range of about 15-70% for treated cells, with the lower viabilities found at higher SPB concentrations (Thompson C, 1995; Cory et al., 1998; van Engeland et al., 1996). UC28(C) is 2.14 mg/ml rabbit polyclonal aliquot directed against the inventors' UC28 patented biomarker developed by UCor R&D gene discovery program. The Antibody was produced against a […] (AA) synthetic peptide from the predicted AA sequence (AA 21-37) UCor, Inc. 840 Research Parkway Oklahoma City, Okla. 73104. Goat Anti-Rabbit CY5 polyclonal Fluorchrome was used as the secondary conjugate for UC28 C rabbit polyclonal antibody and a background control for UC28 C polyclonal. […]
In general terms: Flow cytometry measures light scatter and fluorescence of single cells or particles in a stream.

Assay [2] relates to C4-2B metastatic cell line. Description: Secretion of soluble tPSA and fPSA under SPB treatment. The note with it: culture supernatants. Format: cell-based, human. As to the method:
Cells were grown to 70-80% confluence at 37° C. and 5% CO2 in T-75 tissue culture plastic flasks. SPB stock solution was added to final concentrations of 0.5, 5.0, 10.0, and 25.0 mM in appropriate fresh media to the cell cultures. Cells were incubated at 37° C. and 5% CO2 for 72 hours. Attached cells were then harvested using a solution of 0.05% trypsin and 0.53 mM EDTA (Invitrogen Corp.). Attached cells were then pooled with any the detached cells and washed with PBS pH 7.2. Cell numbers and percent viability were determined using Trypan blue dye exclusion and a hemacytometer. At the time of their use in an experiment the viability was usually about 85% for untreated cells and a range of about 15-70% for treated cells, with the lower viabilities found at higher SPB concentrations (Thompson C, 1995; Cory et al., 1998; van Engeland et al., 1996). […] The data confirms the biological differences in these three cell lines and provides a stronger basis upon which to assess the behavior of the UC28 gene under the same SPB treatment conditions. For both of these experiments, supernatants were collected from the same experiments as in Example 1; cells were collected and assayed for apoptosis as well as for UC28 antigen expression using antibodies to SEQ ID NO:4.

On to `O=C([O-])CCCc1ccccc1.[Na+]` [SPB, 4-Phenylbutyric Acid, Sodium Salt], for which the “UC28 membrane protein expression” value in assay [1] is on record as “do not over express”. For the same compound, in assay [2], the fPSA production entry is “down-regulated” and the tPSA production entry is reported as “down-regulated”.
